Measurements as given in patent US20140288052A1, “SUBSTITUTED BICYCLIC AZA-HETEROCYCLES AND ANALOGUES AS SIRTUIN MODULATORS” (GlaxoSmithKline, LLC, priority 2011, published 2014).

Experiments:
[1] = target: T1, SIRT1 (Homo sapiens, UniProt Q96EB6); assay: TAMRA based mass spectrometry assay of SIRT1 deacetylase activation; assay type: biochemical; conditions: TAMRA peptide substrate; for TAMRA EC1.5 (μM): concentration that results in 150% activation of SIRT1; for TAMRA % Fold Act: percent maximum fold activation relative to control (100%)
T1 sequence (Q96EB6 1-747): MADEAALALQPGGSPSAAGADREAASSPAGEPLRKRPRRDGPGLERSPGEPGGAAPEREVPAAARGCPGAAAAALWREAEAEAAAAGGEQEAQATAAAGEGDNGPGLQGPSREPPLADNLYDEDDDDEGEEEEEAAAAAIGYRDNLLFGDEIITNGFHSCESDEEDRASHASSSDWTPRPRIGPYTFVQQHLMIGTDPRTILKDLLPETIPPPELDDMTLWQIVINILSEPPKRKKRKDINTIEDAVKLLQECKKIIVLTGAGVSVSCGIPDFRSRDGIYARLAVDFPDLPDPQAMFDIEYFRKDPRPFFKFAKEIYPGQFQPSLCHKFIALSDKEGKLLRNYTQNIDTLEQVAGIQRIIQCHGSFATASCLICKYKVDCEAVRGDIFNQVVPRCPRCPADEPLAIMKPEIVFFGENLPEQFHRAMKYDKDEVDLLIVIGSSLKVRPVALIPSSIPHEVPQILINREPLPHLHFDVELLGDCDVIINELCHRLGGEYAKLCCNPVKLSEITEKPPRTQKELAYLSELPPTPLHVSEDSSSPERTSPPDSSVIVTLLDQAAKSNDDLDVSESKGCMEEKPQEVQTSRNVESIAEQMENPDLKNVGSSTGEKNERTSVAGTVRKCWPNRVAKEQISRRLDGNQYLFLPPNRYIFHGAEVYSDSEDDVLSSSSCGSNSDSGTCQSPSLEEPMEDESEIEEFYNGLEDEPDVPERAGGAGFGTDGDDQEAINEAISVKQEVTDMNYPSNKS
How it was run: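 E. coli-expressed N-terminal His-tagged human SIRT1 (10 nM) was incubated 25 min at 25 °C, pH 8 Tris-acetate buffer, with 0.5 μM TAMRA-labelled p53-derived acetyl-peptide, 120 μM NAD+ and varying compound; formic acid stop, mass-spec quantitation of deacetylated product vs DMSO controls. EC1.5 = concentration giving 150% activation.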

[2] = target: T1, SIRT1; assay: Trp mass spectrometry assay of SIRT1 deacetylase activation; assay type: biochemical; conditions: Trp peptide substrate; for TRP EC1.5 (μM): concentration that results in 150% activation of SIRT1; for TRP % Fold Act: percent maximum fold activation relative to control (100%)
How it was run: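 His-tagged human SIRT1 (E. coli-expressed, 10 nM) was incubated with 0.5 μM Ac-RHKK(Ac)W-NH2 peptide and 120 μM βNAD+ for 25 min at 25 °C in HEPES pH 7.5, 1500 mM NaCl, with varying compound; formic acid quench. OAADPR or deacetylated peptide was quantified by mass spectrometry against DMSO control. EC1.5 (150% activation) and percent maximum activation were derived.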

Structure (SMILES)	TAMRA EC1.5 (μM) [1]	TAMRA % Fold Act [1]	TRP EC1.5 (μM) [2]	TRP % Fold Act [2]
O=C(Nc1ccnc2cc(-c3cccc(C(F)(F)F)c3)nn12)c1cccc(N2CCC2)n1 [Compound 98]	C (EC1.5>25 μM)	B (Fold Activation<350%)	C (EC1.5>25 μM)	B (Fold Activation<350%)
O=C(Nc1cnccn1)c1ccnc2cc(-c3ccccc3C(F)(F)F)nn12 [Compound 99]	C (EC1.5>25 μM)	B (Fold Activation<350%)	C (EC1.5>25 μM)	B (Fold Activation<350%)
O=C(Nc1ncccn1)c1ccnc2cc(-c3ccccc3C(F)(F)F)nn12 [Compound 100]	B (EC1.5 1−25 μM)	A (Fold activation≧350%)	B (EC1.5 1−25 μM)	B (Fold Activation<350%)
O=C(Nc1ncccn1)c1ccnc2cc(-c3cccc(C(F)(F)F)c3)nn12 [Compound 101]	C (EC1.5>25 μM)	B (Fold Activation<350%)	B (EC1.5 1−25 μM)	B (Fold Activation<350%)
O=C(Nc1cnccn1)c1ccnc2cc(-c3cccc(C(F)(F)F)c3)nn12 [Compound 102]	C (EC1.5>25 μM)	B (Fold Activation<350%)	C (EC1.5>25 μM)	B (Fold Activation<350%)
O=C(Nc1ccnc2cc(-c3ccccc3C(F)(F)F)nn12)c1cccnc1 [Compound 103]	B (EC1.5 1−25 μM)	B (Fold Activation<350%)	C (EC1.5>25 μM)	B (Fold Activation<350%)
O=C(Nc1ccnc2cc(-c3ccccc3C(F)(F)F)nn12)c1cncnc1 [Compound 104]	C (EC1.5>25 μM)	B (Fold Activation<350%)	C (EC1.5>25 μM)	B (Fold Activation<350%)
Cc1ccnc(C(=O)Nc2ccnc3cc(-c4ccccc4C(F)(F)F)nn23)c1 [Compound 105]	A (EC1.5<1 μM)	A (Fold activation≧350%)	C (EC1.5>25 μM)	B (Fold Activation<350%)
Cc1cc(C)nc(C(=O)Nc2ccnc3cc(-c4ccccc4C(F)(F)F)nn23)c1 [Compound 106]	A (EC1.5<1 μM)	A (Fold activation≧350%)	C (EC1.5>25 μM)	B (Fold Activation<350%)
Cc1cnc(C(=O)Nc2ccnc3cc(-c4ccccc4C(F)(F)F)nn23)cn1 [Compound 108]	A (EC1.5<1 μM)	A (Fold activation≧350%)	C (EC1.5>25 μM)	B (Fold Activation<350%)
Cc1cccc(C(=O)Nc2ccnc3cc(-c4ccccc4C(F)(F)F)nn23)n1 [Compound 109]	A (EC1.5<1 μM)	A (Fold activation≧350%)	C (EC1.5>25 μM)	B (Fold Activation<350%)
O=C(Nc1ccnc2cc(-c3ccccc3C(F)(F)F)nn12)c1ccn[nH]1 [Compound 110]	B (EC1.5 1−25 μM)	A (Fold activation≧350%)	B (EC1.5 1−25 μM)	B (Fold Activation<350%)
COc1cccc(C(=O)Nc2ccnc3cc(-c4ccccc4C(F)(F)F)nn23)n1 [Compound 111]	A (EC1.5<1 μM)	A (Fold activation≧350%)	C (EC1.5>25 μM)	B (Fold Activation<350%)
Cc1cccnc1C(=O)Nc1ccnc2cc(-c3ccccc3C(F)(F)F)nn12 [Compound 112]	A (EC1.5<1 μM)	A (Fold activation≧350%)	C (EC1.5>25 μM)	B (Fold Activation<350%)
O=C(Nc1ccnc2cc(-c3ccccc3C(F)(F)F)nn12)c1ncccc1F [Compound 113]	A (EC1.5<1 μM)	A (Fold activation≧350%)	B (EC1.5 1−25 μM)	B (Fold Activation<350%)
O=C(Nc1ccnc2cc(-c3ccccc3C(F)(F)F)nn12)c1cccc(OC[C@H](O)CO)n1 [Compound 114]	A (EC1.5<1 μM)	A (Fold activation≧350%)	A (EC1.5<1 μM)	A (Fold activation≧350%)
O=C(Nc1ccnc2cc(-c3ccccc3C(F)(F)F)nn12)c1cccc(OC[C@@H](O)CO)n1 [Compound 115]	A (EC1.5<1 μM)	A (Fold activation≧350%)	A (EC1.5<1 μM)	A (Fold activation≧350%)
O=C(Nc1ccnc2cc(-c3ccccc3C(F)(F)F)nn12)c1ncc(F)cc1F [Compound 116]	A (EC1.5<1 μM)	A (Fold activation≧350%)	C (EC1.5>25 μM)	B (Fold Activation<350%)
O=C(Nc1ccnc2cc(-c3ccccc3C(F)(F)F)nn12)c1cnc(O)cn1 [Compound 117]	A (EC1.5<1 μM)	A (Fold activation≧350%)	C (EC1.5>25 μM)	B (Fold Activation<350%)
